Laboratory results: ChEMBL document CHEMBL1141274, “A Polysaccharide from tomato (Lycopersicon esculentum) peels affects NF-kappaB activation in LPS-stimulated J774 macrophages” (2007)

Columns and labels:
Assay type in all cases: functional
J774 [1] = assay: Inhibition of LPS induced iNOS mRNA level in mouse J774 cells at 10 uM by RT-PCR
J774 [2] = assay: Inhibition of iNOS protein expression in mouse J774 cells by Bio-Rad protein assay
J774 [3] = assay: Inhibition of LPS induced nitrite production in mouse J774 cells at 10 uM after 24 hrs relative to control; conditions: J774, 24 h
J774 [4] = assay: Inhibition of LPS induced ROS production in mouse J774 cells at 10 uM after 24 hrs relative to control; conditions: J774, 24 h

Work on S=C(S)N1CCCC1 [PYRROLIDINE DITHIOCARBAMATE] yielded an inhibition at 10 µM (J774 [1]) of 63.9%, an Inhibition (J774 [2]) of 60% and an inhibition at 10 µM (J774 [3]) of 69.3%. For the same compound, the inhibition at 10 µM (J774 [4]) was 42.2%.
